According to ChEMBL document CHEMBL4028908, “The Discovery of 3-((4-Chloro-3-methoxyphenyl)amino)-1-((3R,4S)-4-cyanotetrahydro-2H-pyran-3-yl)-1H-pyrazole-4-carboxamide, a Highly Ligand Efficient and Efficacious Janus Kinase 1 Selective Inhibitor with Favorable Pharmacokinetic Properties” (J Med Chem, 2017):
Values after ≈ are worked out from the molar mass of the structure shown.

What was measured:
Rattus norvegicus [1] = assay: Unbound clearance in rat at 0.5 mg/kg, iv or 1 mg/kg, po; assay type: ADME, organism-based; settings: in vivo
[2] = Intrinsic clearance in human hepatocytes after 120 mins by LC-MS/MS analysis; assay type: ADME, cell-based, Hepatocyte; settings: read-out: CLH
[3] = Intrinsic clearance in rat hepatocytes after 120 mins by LC-MS/MS analysis; assay type: ADME, cell-based, Hepatocyte; settings: read-out: CLH
[4] = Lipophilicity, log D of the compound at 100 uM at pH 7 by HPLC/DAD analysis; assay type: physicochemical; settings: buffer
[5] = molecular target: T1, Voltage-gated inwardly rectifying potassium channel KCNH2 (Homo sapiens, UniProt Q12809)
T1 sequence (Q12809 whole entry): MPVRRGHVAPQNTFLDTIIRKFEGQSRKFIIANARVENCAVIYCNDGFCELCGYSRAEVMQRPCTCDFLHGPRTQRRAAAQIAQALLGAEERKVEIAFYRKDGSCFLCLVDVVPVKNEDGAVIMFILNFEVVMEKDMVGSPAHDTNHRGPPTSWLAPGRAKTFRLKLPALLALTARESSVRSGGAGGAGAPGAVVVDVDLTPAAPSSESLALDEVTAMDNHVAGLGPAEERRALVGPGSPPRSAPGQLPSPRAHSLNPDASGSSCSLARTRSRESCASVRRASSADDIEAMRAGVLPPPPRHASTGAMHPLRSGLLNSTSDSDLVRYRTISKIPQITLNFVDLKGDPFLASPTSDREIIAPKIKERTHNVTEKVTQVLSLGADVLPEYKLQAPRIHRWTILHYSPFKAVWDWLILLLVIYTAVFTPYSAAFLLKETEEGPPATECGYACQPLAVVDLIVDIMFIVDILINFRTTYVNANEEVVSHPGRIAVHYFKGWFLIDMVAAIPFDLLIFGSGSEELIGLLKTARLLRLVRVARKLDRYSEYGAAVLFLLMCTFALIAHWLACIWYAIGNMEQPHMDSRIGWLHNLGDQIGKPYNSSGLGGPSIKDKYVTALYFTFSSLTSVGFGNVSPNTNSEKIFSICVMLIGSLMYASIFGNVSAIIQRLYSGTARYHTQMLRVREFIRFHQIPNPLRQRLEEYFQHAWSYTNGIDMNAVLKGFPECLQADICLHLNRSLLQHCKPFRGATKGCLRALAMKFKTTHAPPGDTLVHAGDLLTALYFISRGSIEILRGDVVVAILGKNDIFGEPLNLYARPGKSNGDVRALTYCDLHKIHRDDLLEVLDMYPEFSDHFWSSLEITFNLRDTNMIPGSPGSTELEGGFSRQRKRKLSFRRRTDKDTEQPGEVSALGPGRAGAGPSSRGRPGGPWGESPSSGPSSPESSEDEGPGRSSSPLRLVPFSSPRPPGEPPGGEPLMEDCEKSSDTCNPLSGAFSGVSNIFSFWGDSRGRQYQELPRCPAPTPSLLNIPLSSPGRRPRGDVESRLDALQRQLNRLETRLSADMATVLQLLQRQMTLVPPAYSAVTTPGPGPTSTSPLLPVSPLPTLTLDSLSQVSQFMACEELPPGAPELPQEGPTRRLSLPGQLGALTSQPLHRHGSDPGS

[6] = Plasma clearance in rat at 0.5 mg/kg, iv or 1 mg/kg, po; assay type: ADME, organism-based
[7] = Volume of distribution at steady state in rat at 0.5 mg/kg, iv or 1 mg/kg, po; assay type: ADME, organism-based; settings: in vivo, read-out: Vdss
[8] = molecular target: T2, Tyrosine-protein kinase JAK1 (Homo sapiens, UniProt P23458)
T2 sequence (P23458 whole entry): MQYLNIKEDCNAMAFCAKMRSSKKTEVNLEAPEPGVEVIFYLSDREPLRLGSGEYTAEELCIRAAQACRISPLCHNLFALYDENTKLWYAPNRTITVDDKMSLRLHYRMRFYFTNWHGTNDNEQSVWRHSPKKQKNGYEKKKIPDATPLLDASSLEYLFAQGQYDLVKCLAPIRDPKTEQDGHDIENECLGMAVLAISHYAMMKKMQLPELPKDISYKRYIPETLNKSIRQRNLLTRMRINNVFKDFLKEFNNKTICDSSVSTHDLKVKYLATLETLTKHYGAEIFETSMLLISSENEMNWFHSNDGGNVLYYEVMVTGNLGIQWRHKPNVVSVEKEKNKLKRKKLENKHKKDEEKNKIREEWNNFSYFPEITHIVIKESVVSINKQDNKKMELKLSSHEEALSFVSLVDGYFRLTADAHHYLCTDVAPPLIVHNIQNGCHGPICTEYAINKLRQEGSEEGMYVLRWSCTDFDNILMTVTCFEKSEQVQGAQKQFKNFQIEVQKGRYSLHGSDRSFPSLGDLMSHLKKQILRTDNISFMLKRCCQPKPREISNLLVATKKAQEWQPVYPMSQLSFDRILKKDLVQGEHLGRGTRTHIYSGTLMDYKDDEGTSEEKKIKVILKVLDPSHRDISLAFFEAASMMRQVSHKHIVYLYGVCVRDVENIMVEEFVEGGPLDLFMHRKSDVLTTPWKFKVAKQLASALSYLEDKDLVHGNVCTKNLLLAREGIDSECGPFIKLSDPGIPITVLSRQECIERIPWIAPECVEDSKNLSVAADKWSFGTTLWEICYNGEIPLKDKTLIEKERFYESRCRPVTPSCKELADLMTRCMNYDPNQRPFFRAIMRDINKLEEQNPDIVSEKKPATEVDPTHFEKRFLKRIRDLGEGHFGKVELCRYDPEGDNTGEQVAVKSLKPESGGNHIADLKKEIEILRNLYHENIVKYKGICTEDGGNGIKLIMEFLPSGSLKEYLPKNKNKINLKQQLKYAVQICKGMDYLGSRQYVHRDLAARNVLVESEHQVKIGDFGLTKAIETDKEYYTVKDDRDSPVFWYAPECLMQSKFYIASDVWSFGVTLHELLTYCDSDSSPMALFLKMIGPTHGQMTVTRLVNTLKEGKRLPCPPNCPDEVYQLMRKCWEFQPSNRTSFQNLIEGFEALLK

[9] = Volume of distribution at steady state in dog at 0.25 mg/kg, iv or 0.5 mg/kg, po; assay type: ADME, organism-based, Canis lupus familiaris; settings: in vivo, read-out: Vdss
[10] = Plasma clearance in dog at 0.25 mg/kg, iv or 0.5 mg/kg, po; assay type: ADME, organism-based, Canis lupus familiaris
[11] = molecular target: T2, Tyrosine-protein kinase JAK1; remark: listed apart in the source
[12] = Oral bioavailability in dog at 0.5 mg/kg; assay type: ADME, organism-based, Canis lupus familiaris; settings: in vivo
[13] = Oral bioavailability in rat at 1 mg/kg; assay type: ADME, organism-based; settings: in vivo
[14] = molecular target: Non-receptor tyrosine-protein kinase TYK2 (Homo sapiens, UniProt P29597)
Chain of Non-receptor tyrosine-protein kinase TYK2 (P29597 whole entry): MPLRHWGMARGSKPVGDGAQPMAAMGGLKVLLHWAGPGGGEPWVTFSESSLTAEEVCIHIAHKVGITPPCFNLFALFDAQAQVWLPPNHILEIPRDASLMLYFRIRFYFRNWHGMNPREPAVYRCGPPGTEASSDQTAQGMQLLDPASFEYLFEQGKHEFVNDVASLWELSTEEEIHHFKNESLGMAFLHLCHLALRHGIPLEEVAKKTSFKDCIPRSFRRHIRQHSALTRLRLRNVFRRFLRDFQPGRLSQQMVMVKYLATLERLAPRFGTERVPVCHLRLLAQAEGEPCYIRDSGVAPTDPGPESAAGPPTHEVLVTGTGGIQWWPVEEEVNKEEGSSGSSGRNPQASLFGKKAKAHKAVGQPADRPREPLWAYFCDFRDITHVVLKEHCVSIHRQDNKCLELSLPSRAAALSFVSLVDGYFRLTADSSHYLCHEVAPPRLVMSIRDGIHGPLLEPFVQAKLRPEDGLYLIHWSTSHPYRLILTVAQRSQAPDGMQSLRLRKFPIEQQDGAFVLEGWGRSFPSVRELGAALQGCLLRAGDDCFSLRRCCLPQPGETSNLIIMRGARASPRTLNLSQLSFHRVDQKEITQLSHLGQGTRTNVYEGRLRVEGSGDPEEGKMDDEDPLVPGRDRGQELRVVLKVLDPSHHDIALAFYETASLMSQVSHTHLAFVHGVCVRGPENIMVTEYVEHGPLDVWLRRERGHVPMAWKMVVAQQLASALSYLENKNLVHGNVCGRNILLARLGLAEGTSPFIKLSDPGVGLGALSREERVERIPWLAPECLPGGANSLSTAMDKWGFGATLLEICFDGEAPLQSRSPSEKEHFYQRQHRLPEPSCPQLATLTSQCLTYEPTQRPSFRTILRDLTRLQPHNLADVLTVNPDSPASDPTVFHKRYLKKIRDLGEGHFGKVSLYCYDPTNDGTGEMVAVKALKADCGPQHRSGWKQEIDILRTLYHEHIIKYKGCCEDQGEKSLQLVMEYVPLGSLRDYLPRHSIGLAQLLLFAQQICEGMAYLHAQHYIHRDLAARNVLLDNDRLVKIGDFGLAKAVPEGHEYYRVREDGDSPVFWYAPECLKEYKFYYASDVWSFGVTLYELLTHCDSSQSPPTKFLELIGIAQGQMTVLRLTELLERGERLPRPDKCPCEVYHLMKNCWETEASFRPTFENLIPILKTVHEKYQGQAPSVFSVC

[15] = molecular target: T1, Voltage-gated inwardly rectifying potassium channel KCNH2; assay: Inhibition of human ERG expressed in HEK293 cells by patch clamp method; assay type: cell-based
[16] = molecular target: T3, Tyrosine-protein kinase JAK3 (Homo sapiens, UniProt P52333)
T3 sequence (P52333 whole entry): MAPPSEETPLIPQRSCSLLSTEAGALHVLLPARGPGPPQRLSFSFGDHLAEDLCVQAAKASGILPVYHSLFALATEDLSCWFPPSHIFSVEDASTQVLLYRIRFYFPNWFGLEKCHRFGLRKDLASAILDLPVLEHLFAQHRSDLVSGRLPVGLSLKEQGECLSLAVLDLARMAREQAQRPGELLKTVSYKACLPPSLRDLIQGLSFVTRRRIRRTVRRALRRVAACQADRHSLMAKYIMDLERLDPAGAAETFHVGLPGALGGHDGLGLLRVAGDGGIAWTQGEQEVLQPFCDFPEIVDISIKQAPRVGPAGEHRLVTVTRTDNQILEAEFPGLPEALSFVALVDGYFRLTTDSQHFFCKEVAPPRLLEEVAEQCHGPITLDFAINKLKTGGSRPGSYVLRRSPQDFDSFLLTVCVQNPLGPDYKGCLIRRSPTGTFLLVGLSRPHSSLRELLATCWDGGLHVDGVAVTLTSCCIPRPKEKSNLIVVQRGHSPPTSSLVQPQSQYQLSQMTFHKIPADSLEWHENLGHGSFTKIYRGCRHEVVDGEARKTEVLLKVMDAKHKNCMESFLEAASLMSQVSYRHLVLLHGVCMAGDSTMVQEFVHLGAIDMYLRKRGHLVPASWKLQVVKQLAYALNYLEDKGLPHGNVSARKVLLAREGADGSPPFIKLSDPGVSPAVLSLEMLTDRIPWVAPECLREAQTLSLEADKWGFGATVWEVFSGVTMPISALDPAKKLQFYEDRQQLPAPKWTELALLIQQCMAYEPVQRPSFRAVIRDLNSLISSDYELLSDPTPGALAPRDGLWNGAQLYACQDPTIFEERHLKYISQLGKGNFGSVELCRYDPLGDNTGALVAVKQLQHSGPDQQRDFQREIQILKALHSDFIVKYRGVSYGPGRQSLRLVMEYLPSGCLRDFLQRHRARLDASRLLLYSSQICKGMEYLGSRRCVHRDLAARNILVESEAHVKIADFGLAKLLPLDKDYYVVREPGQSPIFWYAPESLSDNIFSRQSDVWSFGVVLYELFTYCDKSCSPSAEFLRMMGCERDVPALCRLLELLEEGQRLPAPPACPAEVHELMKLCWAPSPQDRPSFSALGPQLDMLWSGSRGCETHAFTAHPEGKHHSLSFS

[17] = molecular target: T4, Tyrosine-protein kinase JAK2 (Homo sapiens, UniProt O60674)
T4 sequence (O60674 whole entry): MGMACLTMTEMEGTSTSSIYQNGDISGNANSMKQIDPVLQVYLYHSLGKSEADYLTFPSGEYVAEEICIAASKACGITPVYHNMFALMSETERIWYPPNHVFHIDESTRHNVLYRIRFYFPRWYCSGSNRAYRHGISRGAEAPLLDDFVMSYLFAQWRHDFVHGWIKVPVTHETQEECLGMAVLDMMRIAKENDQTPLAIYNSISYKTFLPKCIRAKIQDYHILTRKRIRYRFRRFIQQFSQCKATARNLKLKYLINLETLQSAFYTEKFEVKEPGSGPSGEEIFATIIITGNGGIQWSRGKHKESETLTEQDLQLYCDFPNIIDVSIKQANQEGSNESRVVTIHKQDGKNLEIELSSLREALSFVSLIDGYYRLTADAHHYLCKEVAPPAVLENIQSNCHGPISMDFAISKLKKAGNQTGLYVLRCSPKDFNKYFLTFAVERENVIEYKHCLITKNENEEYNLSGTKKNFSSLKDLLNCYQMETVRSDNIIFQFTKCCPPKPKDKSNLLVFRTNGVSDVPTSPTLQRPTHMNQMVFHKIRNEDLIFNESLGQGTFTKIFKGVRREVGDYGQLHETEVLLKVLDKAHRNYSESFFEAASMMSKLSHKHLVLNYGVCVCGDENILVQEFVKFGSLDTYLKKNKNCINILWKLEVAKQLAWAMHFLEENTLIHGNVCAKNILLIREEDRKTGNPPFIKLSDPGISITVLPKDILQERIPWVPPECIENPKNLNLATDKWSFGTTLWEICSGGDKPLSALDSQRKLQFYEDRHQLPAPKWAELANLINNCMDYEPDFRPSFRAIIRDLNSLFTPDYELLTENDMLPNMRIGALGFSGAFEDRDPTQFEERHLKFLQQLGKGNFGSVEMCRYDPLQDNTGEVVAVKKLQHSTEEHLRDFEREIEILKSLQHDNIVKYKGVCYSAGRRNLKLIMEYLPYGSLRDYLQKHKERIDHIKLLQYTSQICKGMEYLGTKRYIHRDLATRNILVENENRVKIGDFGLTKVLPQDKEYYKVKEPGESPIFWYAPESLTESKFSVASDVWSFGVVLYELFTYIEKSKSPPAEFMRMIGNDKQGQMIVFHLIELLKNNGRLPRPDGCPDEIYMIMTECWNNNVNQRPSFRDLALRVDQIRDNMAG

[18] = Solubility of the compound in FaSSIF solution at 100 uM after overnight incubation by UPLC/DAD analysis; assay type: physicochemical
Homo sapiens = species: Homo sapiens; assay: Selectivity ratio of IC50 for GST-tagged recombinant human JAK2 catalytic domain to IC50 for GST-tagged recombinant human JAK1 catalytic domain
[19] = molecular target: T4, Tyrosine-protein kinase JAK2; remark: listed apart in the source
[20] = Apparent permeability of the compound by cell-based assay; assay type: physicochemical; settings: not told
[21] = Intrinsic clearance in cynomolgus monkey hepatocytes after 120 mins by LC-MS/MS analysis; assay type: ADME, cell-based, Macaca fascicularis, Hepatocyte; settings: read-out: CLH
[22] = Volume of distribution at steady state in cynomolgus monkey at 0.25 mg/kg, iv or 0.5 mg/kg, po; assay type: ADME, organism-based, Macaca fascicularis; settings: in vivo, read-out: Vdss
[23] = molecular target: T2, Tyrosine-protein kinase JAK1; assay: Inhibition of JAK1 in human whole blood assessed as decrease in cytokine-stimulated STAT phosphorylation preincubated for 20 mins followed by cytokine addition measured after 30 mins
[24] = Plasma clearance in cynomolgus monkey at 0.25 mg/kg, iv or 0.5 mg/kg, po; assay type: ADME, organism-based, Macaca fascicularis
[25] = Intrinsic clearance in dog hepatocytes after 120 mins by LC-MS/MS analysis; assay type: ADME, cell-based, Canis lupus familiaris, Hepatocyte; settings: read-out: CLH
[26] = Half life in dog at 0.25 mg/kg, iv or 0.5 mg/kg, po; assay type: ADME, organism-based, Canis lupus familiaris; settings: in vivo
[27] = Half life in cynomolgus monkey at 0.25 mg/kg, iv or 0.5 mg/kg, po; assay type: ADME, organism-based, Macaca fascicularis; settings: in vivo
Canis familiaris = assay: Unbound clearance in dog at 0.25 mg/kg, iv or 0.5 mg/kg, po; assay type: ADME, organism-based, Canis lupus familiaris; settings: in vivo
[28] = Oral bioavailability in cynomolgus monkey at 0.5 mg/kg; assay type: ADME, organism-based, Macaca fascicularis; settings: in vivo
[29] = Protein binding in cynomolgus monkey plasma; assay type: ADME, cell-free, Macaca fascicularis; settings: read-out: PPB (converted)
Cynomolgus monkey = assay: Unbound clearance in cynomolgus monkey at 0.25 mg/kg, iv or 0.5 mg/kg, po; assay type: ADME, organism-based, Macaca fascicularis; settings: in vivo
[30] = Protein binding in dog plasma; assay type: ADME, cell-free, Canis lupus familiaris; settings: read-out: PPB (converted)
[31] = Half life in rat at 0.5 mg/kg, iv or 1 mg/kg, po; assay type: ADME, organism-based; settings: in vivo
Rattus norvegicus [32] = assay: Antiinflammatory activity in po dosed Lewis rat type 2 bovine collagen-induced arthritis model assessed as inhibition of paw swelling administered as bid on day 17; assay type: functional, organism-based
[33] = Protein binding in rat plasma; assay type: ADME, cell-free; settings: read-out: PPB (converted)

Row | SMILES | CL free (Rattus norvegicus [1]) [mL/min/kg] | CLint scaled [2] [mL/min/kg] | CLint scaled [3] [mL/min/kg] | logD at 100 µM [4] | IC50 [5] [nM] | clearance [6] [mL/min/kg] | Vd [7] [L/kg] | IC50 [8] [nM] | Vd [9] [L/kg] | clearance [10] [mL/min/kg] | IC50 [11] [nM] | bioavailability [12] [%] | bioavailability [13] [%] | IC50 [14] [nM] | IC50 [16] [nM] | IC50 [17] [nM] | solubility at 100 µM [18] [µM] | Ratio IC50 (Homo sapiens) | IC50 [19] [nM] | further results
1 | N#C[C@H]1CCCC[C@@H]1n1cc(C(N)=O)c(Nc2ccccc2)n1 | 12100 | 25 | 160 | 2.66 | > 60000 | 484 | – | – | – | – | – | – | – | – | – | – | – | – | – | –
2 | CN(C)[C@H]1CC[C@H](n2cc(C(N)=O)c(Nc3ccc(Cl)cc3)n2)[C@@H](C#N)C1 | – | 26 | 109 | 2.15 | 12200 | 41 | 11 | 1.5 | 8 | 21 | 64 | 42 | 16 | 13 | 1230 | – | – | – | – | IC50 [15]: 3000 nM
3 | Cn1cc(-c2ccc(Nc3nn([C@H]4COCC[C@@H]4C#N)cc3C(N)=O)cc2)cn1 | – | < 20 | 55 | 1.48 | > 60000 | – | – | 0.02 | – | – | 6 | – | 18 | 0.2 | 91 | 39 | 42 (≈ 16.4 µg/mL) | 23 | 0.5 | –
4 | N#C[C@H]1C[C@@H](N2CCC2)CC[C@@H]1n1cc(C(N)=O)c(Nc2ccc([C@H](O)C(F)(F)F)cc2)n1 | – | – | – | 1.54 | – | – | – | – | – | – | – | – | 0 | – | – | – | – | – | – | Papp [20]: 3.3 ×10⁻⁶ cm/s
5 | N#Cc1ccc(Nc2nn([C@H]3COCC[C@@H]3C#N)cc2C(N)=O)cc1 | 100 | 3 | 6 | 1.77 | 40000 | 19 | 2.6 | 0.15 | 2.7 | 12 | 13 | 51 | 47 | 1.2 | 230 | 89 | 130 (≈ 43.7 µg/mL) | 8 | 1.2 | CLint scaled [21]: 6 mL/min/kg; Vd [22]: 1 L/kg; IC50 [23]: 220 nM; clearance [24]: 2.4 mL/min/kg; CLint scaled [25]: 20 mL/min/kg; half-life [26]: 2.6 h; half-life [27]: 5.6 h; CL free (Canis familiaris): 67 mL/min/kg; bioavailability [28]: 18%; fraction unbound [29]: 0.21; CL free (Cynomolgus monkey): 12 mL/min/kg; fraction unbound [30]: 0.18; half-life [31]: 1.4 h; inhibition (Rattus norvegicus [32]): Dose-dependent effect; fraction unbound [33]: 0.19
6 | N#C[C@H]1CCOC[C@@H]1n1cc(C(N)=O)c(Nc2ccccc2)n1 | 110 | 6 | 70 | 2.08 | > 60000 | 20 | – | 0.4 | – | – | 33 | – | 79 | 2.9 | 361 | – | 18 (≈ 5.6 µg/mL) | – | – | –
7 | COc1cc(Nc2nn([C@H]3COCC[C@@H]3C#N)cc2C(N)=O)ccc1Cl | 350 | 6 | 35 | 2.34 | – | 21 | 2.7 | 0.1 | 1.2 | 14 | 13 | 29 | 47 | 12 | 397 | 320 | – | 39 | – | CLint scaled [21]: 36 mL/min/kg; Vd [22]: 2.8 L/kg; IC50 [23]: 1760 nM; clearance [24]: 19 mL/min/kg; CLint scaled [25]: 122 mL/min/kg; half-life [26]: 1.1 h; half-life [27]: 2.8 h; bioavailability [28]: 32%; fraction unbound [29]: 0.033; CL free (Cynomolgus monkey): 581 mL/min/kg; half-life [31]: 1.6 h; inhibition (Rattus norvegicus [32]): Dose-dependent effect; fraction unbound [33]: 0.06
8 | N#C[C@H]1CCOC[C@@H]1n1cc(C(N)=O)c(Nc2ccc(F)cc2)n1 | – | < 20 | < 40 | 2.18 | 40000 | – | – | 0.3 | – | – | 31 | – | 40 | 1.8 | 304 | 334 | 42 (≈ 13.8 µg/mL) | 7 | 2 | –
